Assay results reported in patent publication US20260263651A1, “WOUND DRESSING” (UNIVERSITY OF SUNDERLAND, priority 2023, published 2026).

What was measured:
Assay type in all cases: cell-based
Pseudomonas aeruginosa [1] = test: Microbiological evaluation of overnight bacteria suspensions, modified alginate wound dressing with absorbed substrate on agar; settings: PSA overnight culture, 24 h incubation at 37° C.
Method: (§1) ACTIVHEAL® simply A (10×20 cm) non-adhesive foam samples were provided by Advanced Medical Solutions Ltd. The wound dressings were cut into ~5-10×5-10 mm squares, using an ethanol washed pair of scissors. A maximum of 0.20 g of the material was added into 10 mL DI water, and the pH was adjusted to ~3 by the addition of 0.1 M aq. HCl solution. The solution was stirred for 10 mins at room temperature, followed by the addition of 0.33 g EDC •HCl (1.7 mmol) and the pH was maintained at ~3 by the addition of 0.1 M aq. HCl solution. The solution was stirred at room temperature for 10 mins followed by the addition of 0.88 g compound 8 which was dissolved in DMSO or DMF. The mixture was stirred at room temperature for 48 h. The wound dressings were filtered and were washed with ethanol. To ensure the full removal of any non-coupled amide (8), the foam samples were resuspended in ethanol, stirred for 10 mins and filtered, and this process was repeated until the amide (8) was not detectable from the filtrate (this could be maintained by TLC or HPLC evaluation). The samples were dried in a vacuum oven for 3-4 h.
(§2) The aqueous solution of 3a or 3b was prepared by the following: the desired amount of the enzymatic substrate (3.0 mg for 300 mg/L, 6.0 mg for 600 mg/L, 9.0 mg for 900 mg/L, 15.0 mg for 1500 mg/L, and 30.0 mg for 3000 mg/L) was weighed out on a 4 decimal place balance within ±0.3 mg error limit into a 10 mL volumetric flask and was adjusted to 10.0 mL with DI water. The solutions were absorbed into the foam samples and dried in a vacuum oven at 40° C. overnight.
To model fluid exudate from a chronic wound, the wound dressing made according to ‘Modification of ActivHeal® Alginate’, above, was placed into an agar plate and the test pathogen was smeared over the surface of the agar.
The enzymatic substrates were tested in 4 different concentrations (300, 600, 900 and 3000 mg/L) using DI water as a solvent, and the solutions were absorbed into the wound dressing samples, which were dried overnight under vacuum at 40° C.
Two Gram negative strains (Escherichia coli—EC and Pseudomonas aeruginosa—PSA) and a Gram positive bacteria (Staphylococcus aureus—SA) were evaluated against the dimethyl (3a) and the diethyl (3b) substituted substrate. The overnight cultures were directly smeared from LB broth onto Columbia blood agar without measuring the OD. The wound dressings with the enzymatic substrate absorbed were placed onto the agar and were incubated overnight (see FIGS. 2-7).

Pseudomonas aeruginosa [2] = test: Microbiological evaluation of standardised bacterial suspensions, modified wound dressing with absorbed substrate on agar; design: key to Observable colour change: − indicates no colour change; +− indicates relatively discernible blue colour change; + indicates a moderately strong blue colour change; ++ indicates a strong blue colour change
Method: as §1, §2
(§3) Bacterial strains were routinely cultured from working stocks in Tryptic Soy Broth (TSB) and incubated at 37° C. overnight with shaking at 150 RPM. Overnight cultures were centrifuged at 3000×g for 5 minutes, the supernatant discarded, and the pellet resuspended in 10 mL phosphate buffered saline (PBS). Bacterial inoculums were standardised by optical density at 600 nm on an Amersham Biosciences Ultrospec 10 spectrophotometer (Amersham Biosciences, Amersham, UK) to contain between 1 and 3×10^8 CFU/mL.
(§4) However, rapid evaluation of lower bacteria concentrations is essential for the desired clinical application. […] The solutions were absorbed into the wound dressing samples, which were dried overnight under vacuum at 40° C.
(§5) Two Gram negative strains (Escherichia coli—EC and Pseudomonas aeruginosa—PSA) and a Gram-positive bacterium (Staphylococcus aureus—SA) were evaluated. The bacteria were incubated overnight, centrifuged at 3000×g for 5 mins, the supernatant was discarded, and the residue pellets were resuspended in 10 mL PBS. The inoculums were standardised by measuring the optical density at 600 nm to assure a 1-3×10^8 CFU/mL. The standardised solutions were further diluted to prepare 1-3×10^6 and 1-3×10^4 CFU/mL suspension. 1×10^6 CFU would be an ideal breakpoint for a positive result, as this concentration coincides well with a level of colonisation that would likely go on to produce an infection.
(§6) 100 μL bacterial suspensions were smeared over agar plates. Wound dressing samples were added to the top of the agar and were rolled over a few times (to ensure a full coverage and to ease the visibility of the colour change). The plates were incubated at 37° C., and the results were recorded after 24 h, after 48 h, after 72 h. The results are shown in Table 3-5; − indicates no colour change, +− indicates relatively discernible blue colour change, + indicates a moderately strong blue colour change and ++ indicates a strong blue colour change.

Staphylococcus aureus = test: as above; design: key to Observable colour change: − indicates no colour change; +− indicates relatively discernible blue colour change; + indicates a moderately strong blue colour change; ++ indicates a strong blue colour change; settings: for colour change: SA
Method: as §1, §2, §3, §4, §5, §6

With CC(C)C[C@H](N)C(=O)Nc1ccc(N(C)C)cc1.Cl [3a, (2S)-2-amino-N-[4-(dimethylamino)phenyl]-4-methyl-pentanamide hydrochloride] the Observable colour change (Pseudomonas aeruginosa [1]; substrate 300 mg/L) was “None”, the Observable colour change (Pseudomonas aeruginosa [1]; substrate 600 mg/L) was “Light blue” and the Observable colour change (Pseudomonas aeruginosa [1]; substrate 900 mg/L) was “Blue”. For the same molecule, the Observable colour change (Pseudomonas aeruginosa [1]; substrate 3000 mg/L) was “Blue”, the Observable colour change (Pseudomonas aeruginosa [2]; PSA 10^4, substrate 300 mg/L, 24 h at 37° C.) was “−” and the Observable colour change (Pseudomonas aeruginosa [2]; PSA 10^4, substrate 300 mg/L, 48 h at 37° C.) was “−”. For the same molecule, the Observable colour change (Pseudomonas aeruginosa [2]; PSA 10^4, substrate 300 mg/L, 72 h at 37° C.) was “+”, the Observable colour change (Pseudomonas aeruginosa [2]; PSA 10^4, substrate 900 mg/L, 24 h at 37° C.) was “−” and the Observable colour change (Pseudomonas aeruginosa [2]; PSA 10^4, substrate 900 mg/L, 48 h at 37° C.) was “+−”. For the same molecule, the Observable colour change (Pseudomonas aeruginosa [2]; PSA 10^4, substrate 900 mg/L, 72 h at 37° C.) was “++”, the Observable colour change (Pseudomonas aeruginosa [2]; PSA 10^4, substrate 1500 mg/L, 24 h at 37° C.) was “−” and the Observable colour change (Pseudomonas aeruginosa [2]; PSA 10^4, substrate 1500 mg/L, 48 h at 37° C.) was “−”. For the same molecule, the Observable colour change (Pseudomonas aeruginosa [2]; PSA 10^4, substrate 1500 mg/L, 72 h at 37° C.) was “++”, the Observable colour change (Pseudomonas aeruginosa [2]; PSA 10^6, substrate 300 mg/L, 24 h at 37° C.) was “−” and the Observable colour change (Pseudomonas aeruginosa [2]; PSA 10^6, substrate 300 mg/L, 48 h at 37° C.) was “−”. For the same molecule, the Observable colour change (Pseudomonas aeruginosa [2]; PSA 10^6, substrate 300 mg/L, 72 h at 37° C.) was “+”, the Observable colour change (Pseudomonas aeruginosa [2]; PSA 10^6, substrate 900 mg/L, 24 h at 37° C.) was “−” and the Observable colour change (Pseudomonas aeruginosa [2]; PSA 10^6, substrate 900 mg/L, 48 h at 37° C.) was “−”. For the same molecule, the Observable colour change (Pseudomonas aeruginosa [2]; PSA 10^6, substrate 900 mg/L, 72 h at 37° C.) was “++”, the Observable colour change (Pseudomonas aeruginosa [2]; PSA 10^6, substrate 1500 mg/L, 24 h at 37° C.) was “−” and the Observable colour change (Pseudomonas aeruginosa [2]; PSA 10^6, substrate 1500 mg/L, 48 h at 37° C.) was “+−”. For the same molecule, the Observable colour change (Pseudomonas aeruginosa [2]; PSA 10^6, substrate 1500 mg/L, 72 h at 37° C.) was “+”, the colour change (Pseudomonas aeruginosa [2]; PSA 10^8, 10^6 or 10^4 CFU, after 72 h, every tested substrate concentration) was “moderate or strong blue colour changes” and the Observable colour change (Pseudomonas aeruginosa [2]; PSA 10^8, substrate 300 mg/L, 24 h at 37° C.) was “−”. The Observable colour change (Pseudomonas aeruginosa [2]; PSA 10^8, substrate 300 mg/L, 48 h at 37° C.) was “−”, the Observable colour change (Pseudomonas aeruginosa [2]; PSA 10^8, substrate 300 mg/L, 72 h at 37° C.) was “+” and the Observable colour change (Pseudomonas aeruginosa [2]; PSA 10^8, substrate 900 mg/L, 24 h at 37° C.) was “−”. The Observable colour change (Pseudomonas aeruginosa [2]; PSA 10^8, substrate 900 mg/L, 48 h at 37° C.) was “+”, the Observable colour change (Pseudomonas aeruginosa [2]; PSA 10^8, substrate 900 mg/L, 72 h at 37° C.) was “++” and the Observable colour change (Pseudomonas aeruginosa [2]; PSA 10^8, substrate 1500 mg/L, 24 h at 37° C.) was “−”. The Observable colour change (Pseudomonas aeruginosa [2]; PSA 10^8, substrate 1500 mg/L, 48 h at 37° C.) was “+”, the Observable colour change (Pseudomonas aeruginosa [2]; PSA 10^8, substrate 1500 mg/L, 72 h at 37° C.) was “++” and the colour change (Pseudomonas aeruginosa [2]; PSA, substrate 900 or 1500 mg/L, printed in the 48 h paragraph) was “moderate or strong colour change”. For the same molecule, the Observable colour change (Staphylococcus aureus; SA 10^4, substrate 300 mg/L, 24 h at 37° C.) was “−”, the Observable colour change (Staphylococcus aureus; SA 10^4, substrate 300 mg/L, 48 h at 37° C.) was “−” and the Observable colour change (Staphylococcus aureus; SA 10^4, substrate 300 mg/L, 72 h at 37° C.) was “−”. For the same molecule, the Observable colour change (Staphylococcus aureus; SA 10^4, substrate 900 mg/L, 24 h at 37° C.) was “−”, the Observable colour change (Staphylococcus aureus; SA 10^4, substrate 900 mg/L, 48 h at 37° C.) was “−” and the Observable colour change (Staphylococcus aureus; SA 10^4, substrate 900 mg/L, 72 h at 37° C.) was “−”. For the same molecule, the Observable colour change (Staphylococcus aureus; SA 10^4, substrate 1500 mg/L, 24 h at 37° C.) was “−”, the Observable colour change (Staphylococcus aureus; SA 10^4, substrate 1500 mg/L, 48 h at 37° C.) was “−” and the Observable colour change (Staphylococcus aureus; SA 10^4, substrate 1500 mg/L, 72 h at 37° C.) was “−”. For the same molecule, the Observable colour change (Staphylococcus aureus; SA 10^6, substrate 300 mg/L, 24 h at 37° C.) was “−”, the Observable colour change (Staphylococcus aureus; SA 10^6, substrate 300 mg/L, 48 h at 37° C.) was “−” and the Observable colour change (Staphylococcus aureus; SA 10^6, substrate 300 mg/L, 72 h at 37° C.) was “−”. The Observable colour change (Staphylococcus aureus; SA 10^6, substrate 900 mg/L, 24 h at 37° C.) was “−”, the Observable colour change (Staphylococcus aureus; SA 10^6, substrate 900 mg/L, 48 h at 37° C.) was “−” and the Observable colour change (Staphylococcus aureus; SA 10^6, substrate 900 mg/L, 72 h at 37° C.) was “−”. For the same molecule, the Observable colour change (Staphylococcus aureus; SA 10^6, substrate 1500 mg/L, 24 h at 37° C.) was “−”, the Observable colour change (Staphylococcus aureus; SA 10^6, substrate 1500 mg/L, 48 h at 37° C.) was “−” and the Observable colour change (Staphylococcus aureus; SA 10^6, substrate 1500 mg/L, 72 h at 37° C.) was “−”. For the same molecule, the Observable colour change (Staphylococcus aureus; SA 10^8, substrate 300 mg/L, 24 h at 37° C.) was “−”, the Observable colour change (Staphylococcus aureus; SA 10^8, substrate 300 mg/L, 48 h at 37° C.) was “−” and the Observable colour change (Staphylococcus aureus; SA 10^8, substrate 300 mg/L, 72 h at 37° C.) was “−”. The Observable colour change (Staphylococcus aureus; SA 10^8, substrate 900 mg/L, 24 h at 37° C.) was “−”, the Observable colour change (Staphylococcus aureus; SA 10^8, substrate 900 mg/L, 48 h at 37° C.) was “−” and the Observable colour change (Staphylococcus aureus; SA 10^8, substrate 900 mg/L, 72 h at 37° C.) was “−”. The Observable colour change (Staphylococcus aureus; SA 10^8, substrate 1500 mg/L, 24 h at 37° C.) was “−”, the Observable colour change (Staphylococcus aureus; SA 10^8, substrate 1500 mg/L, 48 h at 37° C.) was “+−” and the Observable colour change (Staphylococcus aureus; SA 10^8, substrate 1500 mg/L, 72 h at 37° C.) was “+−”. For the same molecule, the colour change (Staphylococcus aureus; 48 h paragraph, substrate 1500 mg/L) was “weak, but discernible colour change” and the colour change (Staphylococcus aureus; after 72 h, substrate 1500 mg/L) was “weak, hardly visible colour change”.
